According to patent US20160158200A1, “Combinations of Hepatitis C Virus Inhibitors” (priority 2013, published 2016):
Read-outs that look alike come from different tables or passages of the source.

Experiments:
[1] = system: HCV genotype-1a variant with glutamine 30 changed to glutamate in the NS5A protein; conditions: cited from earlier work
[2] = system: HCV genotype 1a Y93H variant with tyrosine 93 changed to histidine in the NS5A protein; test: microbe, parasite or virus in culture; format: cell-based; conditions: for EC50: Hepatitis C virus; for Fold-Synergistic G-1a (Y93H): genotype 1a Y93H replicon, test compound titrated with compound N47 fixed at 200 nM versus singly
How it was run: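 In an HCV genotype 1a replicon cell-based assay carrying the NS5A Y93H substitution, BMS-790052 was tested alone and in combination with a fixed amount of a second test compound. The combinations were examined for synergistic activity.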

[3] = system: HCV genotype 1a L31V variant with leucine 31 changed to valine in the NS5A protein; test: microbe, parasite or virus in culture; format: cell-based; conditions: for EC50: Hepatitis C virus; for Fold-Synergistic G-1a (L31V): genotype 1a L31V replicon, test compound titrated with compound N47 fixed at 200 nM versus singly
[4] = system: HCV genotype-1a variant with glutamine 30 changed to glutamate in the NS5A protein; format: cell-based; conditions: test compound titrated with BMS-790052 fixed at 200 nM; genotype 1a Q30E replicon
How it was run: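 Synergy was assessed by combining several fixed amounts of an NS5A-targeting compound with a titration of the second compound of interest.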

[5] = compound alone, genotype 1a Q30E replicon, read-out: EC50, titrated singly
[6] = read-out: EC50, titrated singly
[7] = read-out: EC50 in combination with compound N47

COC(=O)N[C@H](C(=O)N1CCC[C@H]1c1nc(-c2ccc(-c3ccc(-c4c[nH]c([C@@H]5CCCN5C(=O)[C@@H](NC(=O)OC)C(C)C)n4)cc3)cc2)c[nH]1)C(C)C [BMS-790052, reference compound]
reciprocal synergistic inhibitory effect for the combination ([1]; BMS-790052 titrated with P-55 fixed at 200 nM): ~100 fold | EC50 [1, 5]: ~200 nM | EC50 ([1]; fixed P-55 at 200 nM, genotype 1a Q30E, read-out: EC50 of BMS-790052 in the presence of P-55): ~2 nM | EC50 [2, 6]: ~69 nM | EC50 [2, 7]: < 0.5 nM | synergistic inhibitory effect for the combination ([2]; titrated with 200 nM compound N47, genotype 1a Y93H): > 100 fold | EC50 [3, 6]: ~56 nM | EC50 [3, 7]: < 0.5 nM | synergistic inhibitory effect with the combination ([3]; titrated with 200 nM compound N47, genotype 1a L31V): > 100 fold

CC(C)CC(=O)N[C@H](c1ncc(-c2ccc(-c3ccc(-c4cnc([C@@H](NC(=O)CC(C)C)C(C)C)[nH]4)cc3)cc2)[nH]1)C(C)C [Compound P-55]
synergistic inhibitory effect with the combination ([1]; P-55 titrated with BMS-790052 fixed at 200 nM): > 100 fold | EC50 [1, 5]: > 200 nM | EC50 ([1]; fixed BMS-790052 at 200 nM, genotype 1a Q30E, read-out: EC50 of P-55 in the presence of BMS-790052): ~2 nM | Fold-Synergistic 1a (Q30E) [4]: >100 fold

CC[C@H](NC(=O)OC)C(=O)N1[C@@H]2C[C@@H]2C[C@H]1c1ncc(-c2ccc(C34CCC(c5cnc([C@@H]6C[C@H]7C[C@H]7N6C(=O)[C@H](CC)NC(=O)OC)[nH]5)(CC3)CC4)cc2)[nH]1
Fold-Synergistic G-1a (Y93H) [2]: >100 fold | Fold-Synergistic G-1a (L31V) [3]: >100 fold

CN(C)[C@@H](C(=O)N1CCC[C@H]1c1nc2ccc(-c3ccc4nc([C@@H]5CCCN5C(=O)[C@@H](c5ccccc5)N(C)C)[nH]c4c3)cc2[nH]1)c1ccccc1
Fold-Synergistic G-1a (Y93H) [2]: <10 fold | Fold-Synergistic G-1a (L31V) [3]: <10 fold

COC(=O)N[C@H](C(=O)N1CCCC1c1cn(-c2ccc(-c3ccc(-n4cnc(C5CCCN5C(=O)[C@@H](NC(=O)OC)C(C)C)c4)cc3)cc2)cn1)C(C)C (stereo partly drawn)
Fold-Synergistic G-1a (Y93H) [2]: >10 fold | Fold-Synergistic G-1a (L31V) [3]: >10 fold

COC(=O)N[C@H](C(=O)N1[C@H](c2ncc(-c3ccc(-c4ccc(-c5cnc([C@@H]6CCN(C)N6C(=O)[C@@H](NC(=O)OC)C(C)C)[nH]5)cc4)cc3)[nH]2)CCN1C)C(C)C
Fold-Synergistic G-1a (Y93H) [2]: >100 fold | Fold-Synergistic G-1a (L31V) [3]: >100 fold

COC(=O)NC(C(=O)N1[C@@H](C)CC[C@H]1c1nc2ccc3cc(C#CC#Cc4ccc5c(ccc6nc([C@@H]7CC[C@H](C)N7C(=O)C(NC(=O)OC)C7CCOCC7)[nH]c65)c4)ccc3c2[nH]1)C1CCOCC1 (stereo partly drawn)
Fold-Synergistic G-1a (Y93H) [2]: <10 fold | Fold-Synergistic G-1a (L31V) [3]: <10 fold

COC(=O)N[C@H](C(=O)N1[C@H](C)CC[C@H]1c1nc(-c2ccc(-c3ccc4cc(-c5c[nH]c([C@@H]6CC[C@@H](C)N6C(=O)[C@@H](NC(=O)OC)C(C)C)n5)ccc4c3)cc2)c[nH]1)C(C)C
Fold-Synergistic G-1a (Y93H) [2]: <10 fold | Fold-Synergistic G-1a (L31V) [3]: >10 fold

COC(=O)N[C@H](C(=O)N1C[C@@H](C)C[C@H]1c1ncc(-c2ccc(-c3ccc4cc(-c5cnc([C@@H]6C[C@H](C)CN6C(=O)[C@@H](NC(=O)OC)C(C)C)[nH]5)ccc4c3)cc2)[nH]1)C(C)C
Fold-Synergistic G-1a (Y93H) [2]: >10 fold | Fold-Synergistic G-1a (L31V) [3]: <10 fold
